Test results as given in patent US20180271847A1, “TREATMENT OF ACUTE TRAUMATIC INJURY” (priority 2015, published 2018).

Tests used:
Assay type in all cases: in vivo
[1] = system: P-zero myelin protein; experiment: P0 myelin protein in tissue lysates after sciatic nerve crush; conditions: mice, tissue lysates at 21 days post-injury/treatment
[2] = system: motor neurons; experiment: Count of large NeuN+ putative motor neurons in spinal cord 28 days after injury; conditions: rats, 28 days after spinal cord injury; large NeuN+ cells, ventral side of the cord
Excerpt: FIGS. 8A-8C show the rescue of motor neurons by administration of 4-AP in acute traumatic injury to the spinal cord of the central nervous system. Another example of an unanticipated ability of the administration of 4-AP to provide benefit in acute traumatic injury was obtained by examining the number of motor neurons present in spinal cords of rats analyzed 28 days after injury, as in Example 1. Tissue sections were labeled with antibodies to the NeuN antigen, which is a marker of all neuronal populations. Due to the size and location of these neurons, they can only be motor neurons. Large neurons on the ventral side of the cord were then counted, in regions similarly distal or proximal to the lesion site. […] FIGS. 8B and 8C are graphs showing quantification of large NeuN+ cells in 1 mm^3 region proximal (p=0.06) and distal (p=0.04) to the lesion edge in 4-AP and control sections. […]
Rescue of motor neurons by administration of 4-AP in acute traumatic injury to the spinal cord of the central nervous system. Another example of an unexpected ability of the administration of 4-AP to provide benefit in acute traumatic injury was obtained by examining the number of motor neurons present in spinal cords of rats analyzed 28 days after injury, as in Example 1. […] Large neurons on the ventral side of the cord were then counted, in regions similarly distal or proximal to the lesion site.

[3] = system: glial fibrillary acidic protein (GFAP); experiment: GFAP labeling (scarring marker) in spinal cord sections after contusion injury; conditions: rats with spinal cord contusion, compared with saline
Excerpt: FIG. 6A and FIG. 6B are images illustrating a section of spinal cords of placebo (saline) (FIG. 6A) and 4-AP (FIG. 6B) treated animals labeled with antibody against glial fibrillary acidic protein (GFAP), which is a marker of scarring in all regions of the central nervous system, (bright spots in FIG. 6A) and DAPI (bright spots in FIG. 6B). indicates the lesion edge. The size bar represents 100 μm. […] These outcomes provide further evidence that 4-AP administration is regulating a response to traumatic injury that is of relevance to traumatic injury in all tissues.
FIGS. 6A-6B further examines expression of a protein called glial fibrillary acidic protein (GFAP), which is one of the markers of scarring in all regions of the central nervous system. […] These outcomes provide further evidence that 4-AP administration is regulating a response to traumatic injury that is of relevance to traumatic injury in all tissues.

[4] = system: Sox 9; experiment: Sox 9 immunofluorescence in spinal cord sections after contusion injury; conditions: rats with contusion injuries to the spinal cord, versus control
Excerpt: FIG. 5A and FIG. 5B are images illustrating a section of control (FIG. 5A) and 4-AP (FIG. 5B) treated animals labeled with anti-Sox 9 (bright spots) and DAPI (darker grey). Arrows highlight the cells that were used to define the baseline threshold for Sox 9 immunofluorescence. Size bar represents 20 μm. FIG. 5C is a graph showing quantification of FIG. 5A and FIG. 5B using the threshold shown in A as baseline. N=3, *p=0.045 t-test.
The ability of daily 4-AP administration to provide benefit at the tissue level was investigated, leading to the wholly unexpected discovery of effects of 4-AP that are relevant to traumatic injuries in a wide range of tissues. The first such observation came from examination of the expression of Sox 9, a transcription factor that is expressed in a wide range of tissues of the nervous system, other excitable tissues and tissues that are not considered to be excitable (including, for example, pancreas, lung, chondrocytes, cartilage, liver, breast, prostate, colorectal, intestine and testis). Among other roles, Sox 9 controls production and expression of chondroitin sulfate proteoglycan, a critical component of scar in many different tissues. […]

`Nc1ccncc1` [4-AP, 4-aminopyridine] was tested, and the “more P0 protein in the lesion area than in nerves of vehicle-treated animals” value [1] was 61+/−15%, the “number of motor neurons in regions distal to the injury” value [2] was “clearly significant increase in the number of motor neurons” and the “number of motor neurons in regions proximal to the injury” value [2] was “very similar degree of increase in motor neurons”. For the same compound, the “GFAP, marker of central nervous system scarring” value [3] was “greatly decreased” and the “expression of Sox9” value [4] was “greatly decrease the expression of Sox9”.
